53 compounds from patent publication US9433621B2, “Substituted pyridine and pyrimidine derivatives and their use in treating viral infections” (Merck Sharp & Dohme Corp., priority 2010, dated 2016) can be followed below.

The test system of one test is HCV replicon. Description: Cell-Based HCV Replicon Assay. As to conditions: Hepatitis C virus; HCV Replicon assay, EC90 given as numeric bound, Table VI; read-out: EC90. An outline of the steps: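 EC50 and EC90 taken from sigmoid fits of ΔCT (5B minus GAPDH) as the concentrations raising ΔCT by 1 and 3.2 over baseline, via multiplex real-time RT-PCR on lysates after 3 days. Replicon cells at 5000/well; 10 two-fold dilutions from 25–1 μM, 0.5% DMSO, 10% FBS.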
In general terms: In antiviral work, replicon cells carry a viral genome segment that copies itself.
Consider `Cc1nc(NCC2(N(C)C)CCOCC2)nc(N[C@@H]2C[C@H](C(C)(C)O)[C@@H](O)[C@H]2O)c1-c1nc2c(C)nccc2s1` [Example 5282], for which the EC90 (usually the concentration at which the effect reaches the 90% level) is over 1000 nM.

Staying with this test, now noted: Hepatitis C virus; HCV Replicon assay, EC90 range, Table VI; read-out: EC90.
For `Cc1nc(NCc2c(F)cc(F)cc2F)nc(N[C@@H]2C[C@H](C3(O)CC3)[C@@H](O)[C@H]2O)c1-c1nc2c(C)nccc2s1` [Example 5236], the concentration for an effect of 90% (EC90) is under 500 nM.

For the compound `Cc1nc(NCCSC(C)(C)C)nc(N[C@@H]2C[C@H](C3(O)CC3)[C@@H](O)[C@H]2O)c1-c1nc2c(C)nccc2s1` [Example 5237], the EC90 was under 500 nM.

`CO[C@H](C)CNc1nc(C)c(-c2nc3c(C)nccc3s2)c(N[C@@H]2C[C@H](C3(O)CC3)[C@@H](O)[C@H]2O)n1` [Example 5238]: the EC90 was under 500 nM.

Turning to `Cc1nc(NCC2CC2)nc(N[C@@H]2C[C@H](C3(O)CC3)[C@@H](O)[C@H]2O)c1-c1nc2c(C)nccc2s1` [Example 5239], the EC90 is under 500 nM.

Take `COC[C@@H](C)Nc1nc(C)c(-c2nc3c(C)nccc3s2)c(N[C@@H]2C[C@H](C3(O)CC3)[C@@H](O)[C@H]2O)n1` [Example 5240]: the EC90 is under 500 nM.

For `CSCCNc1nc(C)c(-c2nc3c(C)nccc3s2)c(N[C@@H]2C[C@H](C(C)(C)O)[C@@H](O)[C@H]2O)n1` [Example 5241], the concentration for an effect of 90% (EC90) is under 500 nM.

Turning to `Cc1nc(N)nc(N[C@@H]2C[C@H](C(C)(C)O)[C@@H](O)[C@H]2O)c1-c1nc2c(C)nccc2s1` [Example 5242], the EC90 was under 500 nM.

Consider `CCOCCNc1nc(C)c(-c2nc3c(C)nccc3s2)c(N[C@@H]2C[C@H](C(O)(COC)COC)[C@@H](O)[C@H]2O)n1` [Example 5243], for which the 90% effect concentration (EC90) was under 500 nM.

With `COC[C@@H](C)Nc1nc(C)c(-c2nc3c(C)nccc3s2)c(N[C@@H]2C[C@H](C(O)(COC)COC)[C@@H](O)[C@H]2O)n1` [Example 5244], the EC90 is under 500 nM.

`COCC(O)(COC)[C@H]1C[C@@H](Nc2nc(NC[C@@H](C)OC)nc(C)c2-c2nc3c(C)nccc3s2)[C@H](O)[C@@H]1O` [Example 5245]: the 90% effect concentration (EC90) was under 500 nM.

As for `COCC(O)(COC)[C@H]1C[C@@H](Nc2nc(NCC3CC3)nc(C)c2-c2nc3c(C)nccc3s2)[C@H](O)[C@@H]1O` [Example 5246], the EC90 was under 500 nM.

`COCC(O)(COC)[C@H]1C[C@@H](Nc2nc(NCc3c(F)cc(F)cc3F)nc(C)c2-c2nc3c(C)nccc3s2)[C@H](O)[C@@H]1O` [Example 5247]: the EC90 was under 500 nM.

For `CCC(O)(CC)[C@H]1C[C@@H](Nc2nc(NCCSC(C)(C)C)nc(C)c2-c2nc3c(C)nccc3s2)[C@H](O)[C@@H]1O` [Example 5248], the EC90 is under 500 nM.

For the compound `Cc1nc(NCCS(C)(=O)=O)nc(N[C@@H]2C[C@H](C(C)(C)O)[C@@H](O)[C@H]2O)c1-c1nc2c(C)nccc2s1` [Example 5249], the EC90 lay within 500 to 5000 nM.

Turning to `Cc1nc(NCCS(=O)(=O)C(C)(C)C)nc(N[C@@H]2C[C@H](C(C)(C)O)[C@@H](O)[C@H]2O)c1-c1nc2c(C)nccc2s1` [Example 5250], the EC90 is under 500 nM.

In the case of `CSCC[C@@H](CO)Nc1nc(C)c(-c2nc3c(C)nccc3s2)c(N[C@@H]2C[C@H](C(C)(C)O)[C@@H](O)[C@H]2O)n1` [Example 5251], the EC90 is under 500 nM.

Take `Cc1nc(NCc2cn(C)cn2)nc(N[C@@H]2C[C@H](C(C)(C)O)[C@@H](O)[C@H]2O)c1-c1nc2c(C)nccc2s1` [Example 5252]: the EC90 is under 500 nM.

As to `CCSC[C@@H](C)Nc1nc(C)c(-c2nc3c(C)nccc3s2)c(N[C@@H]2C[C@H](C(C)(C)O)[C@@H](O)[C@H]2O)n1` [Example 5253], the EC90 was under 500 nM.

In the case of `Cc1nc(N[C@H](C)CSC(C)(C)C)nc(N[C@@H]2C[C@H](C(C)(C)O)[C@@H](O)[C@H]2O)c1-c1nc2c(C)nccc2s1` [Example 5254], the EC90 was under 500 nM.

For `CCS[C@H](C)CNc1nc(C)c(-c2nc3c(C)nccc3s2)c(N[C@@H]2C[C@H](C(C)(C)O)[C@@H](O)[C@H]2O)n1` [Example 5255], the EC90 is under 500 nM.

For `Cc1nc(N[C@H](C)COC(C)C)nc(N[C@@H]2C[C@H](C(C)(C)O)[C@@H](O)[C@H]2O)c1-c1nc2c(C)nccc2s1` [Example 5256], the EC90 is under 500 nM.

With `COC1(CNc2nc(C)c(-c3nc4c(C)nccc4s3)c(N[C@@H]3C[C@H](C(C)(C)O)[C@@H](O)[C@H]3O)n2)CC1` [Example 5257], the EC90 is under 500 nM.

As for `Cc1nc(N)nc(N[C@@H]2C[C@H](CO)[C@@H](O)[C@H]2O)c1-c1nc2c(C3CC3)nccc2s1` [Example 5258], the EC90 is under 500 nM.

As to `Cc1nc(NC[C@@H](C)OC(C)C)nc(N[C@@H]2C[C@H](C(C)(C)O)[C@@H](O)[C@H]2O)c1-c1nc2c(C)nccc2s1` [Example 5259], the EC90 was under 500 nM.

In the case of `C#CCCNc1nc(C)c(-c2nc3c(C)nccc3s2)c(N[C@@H]2C[C@H](C(C)(C)O)[C@@H](O)[C@H]2O)n1` [Example 5260], the EC90 is under 500 nM.

As for `CSCCCNc1nc(C)c(-c2nc3c(C)nccc3s2)c(N[C@@H]2C[C@H](C(C)(C)O)[C@@H](O)[C@H]2O)n1` [Example 5261], the EC90 is under 500 nM.

On to `Cc1nc(NCCC(C)(C)C)nc(N[C@@H]2C[C@H](C(C)(C)O)[C@@H](O)[C@H]2O)c1-c1nc2c(C)nccc2s1` [Example 5262], for which the EC90 is under 500 nM.

On to `COC[C@@H](C)Nc1nc(C)c(-c2nc3c(C)nccc3s2)c(N[C@@H]2C[C@H](C(C)(C)O)[C@@H](OC)[C@H]2OC)n1` [Example 5263], for which the EC90 is under 500 nM.

Consider `CO[C@@H]1[C@H](OC)[C@@H](C(C)(C)O)C[C@H]1Nc1nc(NC[C@@H](C)OC)nc(C)c1-c1nc2c(C)nccc2s1` [Example 5264], for which the EC90 was under 500 nM.

`CO[C@@H]1[C@H](OC)[C@@H](C(C)(C)O)C[C@H]1Nc1nc(NCC2CC2)nc(C)c1-c1nc2c(C)nccc2s1` [Example 5265]: the EC90 is under 500 nM.

In the case of `CO[C@@H]1[C@H](OC)[C@@H](C(C)(C)O)C[C@H]1Nc1nc(NCc2c(F)cc(F)cc2F)nc(C)c1-c1nc2c(C)nccc2s1` [Example 5266], the EC90 is under 500 nM.

Take `CCSCCNc1nc(C)c(-c2nc3c(C)nccc3s2)c(N[C@@H]2C[C@H](C(C)(C)O)[C@@H](OC)[C@H]2OC)n1` [Example 5267]: the EC90 is under 500 nM.

On to `CO[C@@H]1[C@H](OC)[C@@H](C(C)(C)O)C[C@H]1Nc1nc(N)nc(C)c1-c1nc2c(C)nccc2s1` [Example 5268], for which the EC90 was under 500 nM.

As for `CCC(O)(CC)[C@H]1C[C@@H](Nc2nc(NCCC3CC3)nc(C)c2-c2nc3c(C)nccc3s2)[C@H](O)[C@@H]1O` [Example 5269], the 90% effect concentration (EC90) was 500 to 5000 nM.

`CCC(O)(CC)[C@H]1C[C@@H](Nc2nc(NCC3(C)CC3)nc(C)c2-c2nc3c(C)nccc3s2)[C@H](O)[C@@H]1O` [Example 5270]: the EC90 is under 500 nM.

`CCC(O)(CC)[C@H]1C[C@@H](Nc2nc(NC3CCOCC3)nc(C)c2-c2nc3c(C)nccc3s2)[C@H](O)[C@@H]1O` [Example 5271]: the EC90 is under 500 nM.

As for `CCCCCNc1nc(C)c(-c2nc3c(C)nccc3s2)c(N[C@@H]2C[C@H](C(O)(CC)CC)[C@@H](O)[C@H]2O)n1` [Example 5272], the concentration for an effect of 90% (EC90) was under 500 nM.

As to `CCC(O)(CC)[C@H]1C[C@@H](Nc2nc(N)nc(C)c2-c2nc3c(C)nccc3s2)[C@H](O)[C@@H]1O` [Example 5273], the EC90 was under 500 nM.

For the compound `COC[C@@H](C)Nc1nc(C)c(-c2nc3c(C)nccc3s2)c(N[C@@H]2C[C@H](C(C)(C)OC)[C@@H](O)[C@H]2O)n1` [Example 5274], the 90% effect concentration (EC90) is under 500 nM.

In the case of `CO[C@H](C)CNc1nc(C)c(-c2nc3c(C)nccc3s2)c(N[C@@H]2C[C@H](C(C)(C)OC)[C@@H](O)[C@H]2O)n1` [Example 5275], the EC90 is under 500 nM.

As for `COC(C)(C)[C@H]1C[C@@H](Nc2nc(NCC3CC3)nc(C)c2-c2nc3c(C)nccc3s2)[C@H](O)[C@@H]1O` [Example 5276], the EC90 is under 500 nM.

Consider `COC(C)(C)[C@H]1C[C@@H](Nc2nc(NCc3c(F)cc(F)cc3F)nc(C)c2-c2nc3c(C)nccc3s2)[C@H](O)[C@@H]1O` [Example 5277], for which the EC90 is under 500 nM.

Turning to `CCSCCNc1nc(C)c(-c2nc3c(C)nccc3s2)c(N[C@@H]2C[C@H](C(C)(C)OC)[C@@H](O)[C@H]2O)n1` [Example 5278], the EC90 is under 500 nM.

For the compound `COC(C)(C)[C@H]1C[C@@H](Nc2nc(N)nc(C)c2-c2nc3c(C)nccc3s2)[C@H](O)[C@@H]1O` [Example 5279], the concentration for an effect of 90% (EC90) is under 500 nM.

With `Cc1nc(NCCSc2ccccc2)nc(N[C@@H]2C[C@H](C(C)(C)O)[C@@H](O)[C@H]2O)c1-c1nc2c(C)nccc2s1` [Example 5280], the concentration for an effect of 90% (EC90) was under 500 nM.

Consider `Cc1nc(NCCS(N)(=O)=O)nc(N[C@@H]2C[C@H](C(C)(C)O)[C@@H](O)[C@H]2O)c1-c1nc2c(C)nccc2s1` [Example 5281], for which the concentration for an effect of 90% (EC90) lay in the range of 500 to 5000 nM.

For `COC[C@@H](C)Nc1nc(C)c(-c2nc3c(C)nccc3s2)c(N[C@@H]2C[C@H](C(C)C)[C@@H](O)[C@H]2O)n1` [Example 5283], the EC90 is under 500 nM.

In the case of `Cc1nc(NCC2CC2)nc(N[C@@H]2C[C@H](C(C)C)[C@@H](O)[C@H]2O)c1-c1nc2c(C)nccc2s1` [Example 5284], the EC90 was under 500 nM.

As for `Cc1nc(NC2CC2)nc(N[C@@H]2C[C@H](C(C)C)[C@@H](O)[C@H]2O)c1-c1nc2c(C)nccc2s1` [Example 5285], the EC90 was under 500 nM.

For `Cc1nc(N)nc(N[C@@H]2C[C@H](C(C)C)[C@@H](O)[C@H]2O)c1-c1nc2c(C)nccc2s1` [Example 5286], the 90% effect concentration (EC90) is under 500 nM.

On to `COCCC1(CNc2nc(C)c(-c3nc4c(C)nccc4s3)c(N[C@@H]3C[C@H](C(C)(C)O)[C@@H](O)[C@H]3O)n2)CCOCC1` [Example 5287], for which the EC90 is under 500 nM.

In the case of `Cc1nc(NCCS(=O)(=O)N(C)C)nc(N[C@@H]2C[C@H](C(C)(C)O)[C@@H](O)[C@H]2O)c1-c1nc2c(C)nccc2s1` [Example 5288], the EC90 is under 500 nM.
